Laboratory results from ChEMBL document CHEMBL1152159, “Possible involvement of radical intermediates in the inhibition of cysteine proteases by allenyl esters and amides” (Bioorg Med Chem Lett, 2008).
Values belong to the compound of their own block, whether it stands above or below them.

What was measured:
[1] = system: Rattus norvegicus; test: Inhibition of water-immersion stress-induced ulcer formation in rat at 1 mg/kg; format: functional
[2] = system: Rattus norvegicus; test: Inhibition of water-immersion stress-induced ulcer formation in rat at 10 mg/kg; format: functional
[3] = system: Rattus norvegicus; test: Inhibition of water-immersion stress-induced ulcer formation in rat at 3 mg/kg; format: functional
[4] = Inhibition of urease
[5] = molecular target: Cathepsin B (Homo sapiens, UniProt P07858); test: Inhibition of cathepsin B in oxygen free condition
[6] = system: Rattus norvegicus; test: Inhibition of water-immersion stress-induced ulcer formation in rat at 30 mg/kg; conditions: read-out: INH
[7] = Dissociation constant, pKa of the compound; format: physicochemical

IC50 [4]: 1.1 µM
IC50 [5]: 232 µM
Compound: CCOC(=O)C(C)=C=C(c1ccccc1)c1ccccc1
inhibition in vivo at 1 mg/kg [1]: 40%
inhibition in vivo at 10 mg/kg [2]: 87%
inhibition in vivo at 3 mg/kg [3]: 52%

Compound: NC(N)=Nc1nc(CSCC/C(N)=N/S(N)(=O)=O)cs1 [FAMOTIDINE]
inhibition in vivo at 3 mg/kg [3]: 59%

Compound: CN/C(=N\CCSCc1nc[nH]c1C)NC#N [CIMETIDINE]
inhibition in vivo at 30 mg/kg [6]: 74%

pKa [7]: 8.7
Compound: N[C@@H](CCC(=O)N[C@@H](CS)C(=O)NCC(=O)O)C(=O)O [GLUTATHIONE]
